{"source": "patent US7816074B2", "about": "“α4 β2 δGABA-A receptors as a strategy for PMS and alcoholism” (priority 2003, dated 2010)", "key": {"α1β2 receptors": {"molecular_target": "T1, α1β2 receptors (Rattus norvegicus, UniProt P62813+P63138)", "T1 construct": "expressed in transfected cells; host or cells: oocytes injected with cRNA (Xenopus laevis is named only)", "T1 sequence (P62813 28-455)": "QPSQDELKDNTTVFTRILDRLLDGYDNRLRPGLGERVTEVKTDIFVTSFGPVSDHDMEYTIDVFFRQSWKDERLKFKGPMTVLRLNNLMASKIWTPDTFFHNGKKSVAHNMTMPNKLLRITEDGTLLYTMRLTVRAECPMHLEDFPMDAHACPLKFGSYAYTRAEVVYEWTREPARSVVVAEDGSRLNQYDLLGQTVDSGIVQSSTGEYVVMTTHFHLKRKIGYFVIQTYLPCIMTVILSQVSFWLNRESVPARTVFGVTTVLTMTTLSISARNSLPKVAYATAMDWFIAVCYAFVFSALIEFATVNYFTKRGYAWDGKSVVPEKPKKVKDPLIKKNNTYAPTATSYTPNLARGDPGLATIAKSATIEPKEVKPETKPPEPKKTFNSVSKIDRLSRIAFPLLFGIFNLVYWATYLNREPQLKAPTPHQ", "T1 sequence (P63138 25-474 limits assumed)": "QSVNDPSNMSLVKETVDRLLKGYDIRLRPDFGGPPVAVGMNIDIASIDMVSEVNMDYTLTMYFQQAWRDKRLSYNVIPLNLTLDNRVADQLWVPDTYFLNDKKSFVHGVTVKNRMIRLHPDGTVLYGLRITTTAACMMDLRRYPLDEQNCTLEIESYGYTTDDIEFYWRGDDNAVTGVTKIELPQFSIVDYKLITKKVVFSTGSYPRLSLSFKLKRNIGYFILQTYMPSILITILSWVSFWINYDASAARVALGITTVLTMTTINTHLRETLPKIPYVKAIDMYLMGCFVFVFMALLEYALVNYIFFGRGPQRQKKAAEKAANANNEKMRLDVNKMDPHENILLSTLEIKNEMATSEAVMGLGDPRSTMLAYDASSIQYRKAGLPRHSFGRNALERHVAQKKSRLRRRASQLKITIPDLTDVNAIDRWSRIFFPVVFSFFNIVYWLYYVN", "experiment": "Two-electrode voltage-clamp of recombinant GABAA receptors in oocytes", "format": "cell-based, expressed in Xenopus laevis oocytes", "settings": "oocytes injected with α1+β2", "from_the_text": "Plasmids with inserts encoding GABAA receptor subunit sequence for rat α1 (62), rat β2 (83), rat α2 (62), rat α5 (62), mouse α4 (37), mouse β3 (82), rat β1 (83), rat γ2S (63), human δ (12), and human ε (11) were produced by subcloning each separately into an appropriate cloning vehicle such as PCDM8, pCDNA3.1 or pGHEMHE vectors (Invitrogen, Carlsbad Calif.) using a T7 promoter and standard subcloning techniques (59). Plasmids were linearized with an appropriate restriction enzyme at a site 3′ to the insert and cRNAs were synthesized using T3 or T7 polymerase (mMessage mMachine, Ambion, Tex.). The size of the cRNA was verified and RNA was quantified by ethidium bromide staining after electrophoresis on 1% agarose gels.\nThe preparation, injection, and maintenance of oocytes were carried out as described previously (78). […]\nVoltage-clamp recording was carried out 1 to 3 days after injection of cRNAs. […] Oocytes were voltage-clamped at −70 mV and macroscopic currents were recorded with a two-electrode voltage-clamp using a Warner Instruments OC-725 amplifier as described previously (79). Currents were recorded on a chart recorder or by using Axograph on a Macintosh computer. […]"}, "female Long Evans rats": {"system": "female Long Evans rats", "experiment": "Acoustic startle response (ASR)", "format": "in vivo, rat", "settings": "for decrease of peak ASR: diestrous and sham controls", "description": "Animals were tested in a stabilimeter device (SR-Lab Startle Response System, San Diego Instruments, Inc., San Diego, Calif.) that permits vertical movement of a Plexiglas platform contained within a lit, well-ventilated sound-attenuating chamber (26). The amplitude of movement is detected by a piezoelectric device with a voltage output proportional to platform displacement. The analog output of the accelerometer is then amplified and digitized before computer analysis. Five minutes after i.p. administration of 10% ethanol (0.05-1.6 g/kg) or saline vehicle (1.5 ml volume) or 25 minutes after 4,5,6,7-tetrahydroisoxazolo[5,4-c]pyridin-3-ol injection (3 mg/kg, i.p.), animals were placed in the chamber for a 5 minutes acclimation period. […] Four acoustic stimuli (116 dB, 40 ms duration) were then presented at random intervals once every 10-15 seconds via a white-noise generator through speakers positioned on either side of the cage. […] For each acoustic stimulus, the amplitude and integrated response (amplitude and duration) were determined and normalized to the weight of the animal. Values for the integrated response after administration of each dose of ethanol or 4,5,6,7-tetrahydroisoxazolo[5,4-c]pyridin-3-ol were averaged and expressed as a fraction of the saline control average for the indicated treatment (progesterone withdrawal versus control) group in order to minimize variability between groups. […] It is also routinely used to assess behavioral excitability after withdrawal from BDZs and ethanol (73).\nAnimals were tested in a stabilimeter device (SR-Lab Startle Response System, San Diego Instruments, Inc.) that permitted vertical movement of a Plexiglas cage contained within a lit, well-ventilated, sound-attenuating chamber. The amplitude of movement was detected by a piezoelectric device with a voltage output proportional to cage displacement. The analog output of the accelerometer was amplified and digitized before computer analysis (15). Five minutes following intraperitoneal administration of alcohol (0.2 or 0.4 g/kg) or saline vehicle (1.5 ml volume), animals were placed in the chamber for 5 a minute acclimation period. Five acoustic stimuli (116 dB, 40 msec duration) were then presented once every 10-15 seconds via a white-noise generator through speakers positioned on either side of the cage. For each acoustic stimulus, the integrated response (amplitude and duration) was averaged across a 100 msec post-stimulus time period and the response latency determined. Both values were normalized to the weight of the animal. Values for the integrated response for the first noise stimulus following administration of each dose of alcohol were averaged and expressed as a fraction of the saline control average for the indicated treatment (P Wd versus control) group. […] It is routinely used to assess behavioral excitability following withdrawal from benzodiazepiness (48) and alcohol (73), and is known to be modified by GABA modulators, such as diazepam (11), and by local infusion of excitatory compounds into dorsal hippocampus (85)."}, "α4β2δ GABAA receptors": {"molecular_target": "T2, α4β2δ GABAA receptors (UniProt O14764+P63138+Q9D6F4)", "T2 construct": "expressed in transfected cells", "T2 sequence (Q9D6F4 36-552)": "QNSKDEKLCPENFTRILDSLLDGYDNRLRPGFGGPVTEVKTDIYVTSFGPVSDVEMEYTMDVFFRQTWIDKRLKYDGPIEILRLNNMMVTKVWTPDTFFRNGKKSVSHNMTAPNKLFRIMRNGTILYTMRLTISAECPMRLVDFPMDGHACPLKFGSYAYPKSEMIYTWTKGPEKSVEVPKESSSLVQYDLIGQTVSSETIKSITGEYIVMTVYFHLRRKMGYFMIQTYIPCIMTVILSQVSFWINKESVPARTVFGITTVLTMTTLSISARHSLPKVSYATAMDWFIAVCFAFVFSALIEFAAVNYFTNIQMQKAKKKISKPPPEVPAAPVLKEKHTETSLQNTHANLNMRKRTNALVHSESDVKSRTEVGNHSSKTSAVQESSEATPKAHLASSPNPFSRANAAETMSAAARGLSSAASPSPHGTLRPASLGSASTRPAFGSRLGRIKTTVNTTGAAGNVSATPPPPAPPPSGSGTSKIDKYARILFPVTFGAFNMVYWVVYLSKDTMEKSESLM", "T2 sequence (P63138 25-474 limits assumed)": "as the sequence (P63138 25-474 limits assumed) above", "T2 sequence (O14764 17-452 limits assumed)": "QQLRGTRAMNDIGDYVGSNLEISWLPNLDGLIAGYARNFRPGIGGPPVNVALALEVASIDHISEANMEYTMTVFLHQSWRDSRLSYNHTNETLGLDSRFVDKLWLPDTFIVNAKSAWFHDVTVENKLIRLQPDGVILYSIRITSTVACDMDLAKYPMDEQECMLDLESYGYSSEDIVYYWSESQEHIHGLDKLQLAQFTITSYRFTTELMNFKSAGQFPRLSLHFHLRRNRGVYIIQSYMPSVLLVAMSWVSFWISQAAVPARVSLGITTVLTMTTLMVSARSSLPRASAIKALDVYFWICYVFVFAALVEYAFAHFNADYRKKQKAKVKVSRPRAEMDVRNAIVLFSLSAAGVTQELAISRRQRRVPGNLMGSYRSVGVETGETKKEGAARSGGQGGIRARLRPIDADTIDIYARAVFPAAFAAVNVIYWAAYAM", "settings": "oocytes (ref. 67), cited from earlier work"}}, "note": "Read-outs that look alike come from different tables or passages of the source."}
{"smiles": "CCO", "note": "[ethanol]", "values": [{"measurement": "responses to GABA in presence of alcohol, % of control", "setting": "α1β2 receptors", "value": "88-95 % of control"}, {"measurement": "effect on acoustic startle response", "setting": "female Long Evans rats; alcohol 0.2-0.4 g/kg in vivo, after progesterone withdrawal (Example III)", "value": "decreased the acoustic startle response"}, {"measurement": "effect on ASR", "setting": "female Long Evans rats; ethanol 0.05 g/kg i.p., P withdrawal and diestrous control animals", "value": "equally ineffective"}, {"measurement": "attenuation of average peak and integrated startle responses", "setting": "female Long Evans rats; ethanol 0.2-0.4 g/kg i.p., after P withdrawal", "value": "about 70%"}, {"measurement": "attenuation of startle responses", "setting": "female Long Evans rats; ethanol 0.2-0.4 g/kg i.p., diestrous and sham control animals", "value": "not observed"}, {"measurement": "decrease of peak ASR", "setting": "female Long Evans rats; ethanol 0.2 g/kg", "value": "ineffective"}, {"measurement": "effect on ASR", "setting": "female Long Evans rats; ethanol 0.8-1.2 g/kg i.p., P withdrawn animals", "value": "ineffective"}, {"measurement": "effect on ASR", "setting": "female Long Evans rats; ethanol 0.8-1.2 g/kg i.p., both control groups", "value": "significantly decreased"}, {"measurement": "decrease of peak ASR", "setting": "female Long Evans rats; ethanol 0.8 g/kg", "value": "effective"}, {"measurement": "effect on ASR", "setting": "female Long Evans rats; ethanol 1.6 g/kg i.p., P withdrawal and diestrous control animals", "value": "decreased the ASR"}, {"measurement": "effect on α4β2δ GABAA receptor", "setting": "α4β2δ GABAA receptors; ethanol 1-3 mM", "value": "potentiated"}, {"measurement": "effect on α4β2δ GABAA receptor", "setting": "α4β2δ GABAA receptors; ethanol >10 mM", "value": "ineffective"}]}
